Reference: the METLIN SMRT retention time set (Domingo-Almenara et al. 2019)

Experiment: gradient 5% acetonitrile 3 min, to 50% in 2 min, to 85% in 15 min, held 3 min, 100 µL/min
Settings: column: Zorbax Extend-C18 2.1 x 50 mm; eluents: water / acetonitrile, 0.1% formic acid
Method in brief: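 Pure standards were analyzed in mixtures of ~100 molecules using HPLC coupled to a quadrupole time-of-flight mass spectrometer, in both positive and negative ionization mode. Separation used a Zorbax Extend-C18 column (2.1 × 50 mm, 1.8 μm) at 100 μL/min, with water and acetonitrile each containing 0.1% formic acid. Dead and dwell volumes were 40 μL and 900 μL, and data were collected over 3 months. Retention time was read from computationally picked adduct peaks, each inspected manually.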

RP-LC retention time	Compound
1010 s	COc1ccc(OC)c(NC(=O)CN2c3ccc(F)cc3-c3ccccc3S2(=O)=O)c1
784 s	CSc1nnc(Cc2nnc(SC)n2-c2ccccc2)n1-c1ccccc1
779 s	Cc1ccc(NC(=O)N2C[C@@H](F)C[C@H]2C(=O)N2CCCCC2)c(Cl)c1
647 s	CCOC(=O)C(C)Sc1ccc2nnc(CCNC(=O)c3ccc(OC)cc3)n2n1 (stereo not given)
774 s	Cc1cc(C2CCCN2C(=O)Nc2cccc(C)c2C)no1 (stereo not given)
1080 s	CCCN1C(=O)COc2ccc(-c3noc(Cc4cc(OC)cc(OC)c4)n3)cc21
711 s	CN1C(=O)CCSc2ccccc21
640 s	CCCc1ccc(S(=O)(=O)N2CCC(n3cnc4c(C)cccc4c3=O)CC2)cc1
602 s	CN1CCC(NC(=O)c2cccc3c2CCN3C(=O)c2ccc(F)cc2)CC1
680 s	COc1ccccc1C(=O)NCCn1cc(SCC(N)=O)c2ccccc21
601 s	N#Cc1ccc(NC(=O)Cc2cn3cc(F)ccc3n2)cc1
873 s	CCCc1cc(C2CCCN2C(=O)NCc2ccc(F)cc2)no1 (stereo not given)
733 s	Cc1ccsc1C(=O)Nc1ccc2c(c1)CCC(=O)N2C
976 s	O=C(Nc1ccc(F)cc1Cl)c1cnc(-c2ccccc2)nc1-c1ccncc1
969 s	CN(C(=O)c1ccc(-c2cnc(N3CCCC3)nc2)cc1)C1CCCCC1
898 s	Cc1cccc(S(=O)(=O)N2CC=C(c3cn(C)c4ncccc34)CC2)c1
741 s	CNC(=O)c1sc2nc(-c3ccc(F)cc3)c(NCCOC)n2c1C
1230 s	Cc1c(Cl)cccc1NC(=O)C1CCCN(c2nc3ccccc3nc2C(F)(F)F)C1 (stereo not given)
1260 s	Cc1ccc(NS(=O)(=O)c2cc(-c3nc(C(C)(C)C)cs3)cs2)c(F)c1
720 s	COc1ccc(NC(=O)CN2C(=O)NC3(CCC(C)CC3)C2=O)cc1OC (stereo not given)
579 s	O=C(NCC#CCN1CCc2ccccc2C1)c1cc(C2CC2)on1
846 s	CCOc1ccc(NS(=O)(=O)c2cc(C(=O)N3CCN(c4ccccc4OC)CC3)n[nH]2)cc1
698 s	CCn1cnc2ccc(-c3noc(-c4ccc(OC)c(OC)c4)n3)cc21

RP-LC retention time	Compound
624 s	CCC(C(=O)NCCCN1CCN(CC)CC1)n1nc(C)c2sc3ccccc3c2c1=O (stereo not given)
730 s	CCOC(=O)C1=C(CN2CCN(c3ccccc3F)CC2)NC(=O)NC1c1cccc(OC)c1OC (stereo not given)
1090 s	COC(=O)C1=C(C)N(C2CCCCC2)C(=O)C1(NC(=O)c1ccccc1OC)C(F)(F)F (stereo not given)
1290 s	COc1nc2ccccc2nc1N1CCCC(C(=O)Nc2cc(C)c(Br)cc2C)C1 (stereo not given)
708 s	CC(=O)Oc1cc(C(C)C)c(OCCN(C)C)cc1C
834 s	COc1ccc(-c2noc(C3CCCN3C(=O)c3ccsc3)n2)cc1OC (stereo not given)
763 s	CC(=O)Nc1ccc(SCc2nnc(-c3ccccc3)o2)cc1
743 s	COc1ccccc1OCC(=O)Nc1ccc2c(c1)CN(C(=O)C1CC1)CC2
911 s	Cc1ccc(N2CC(c3nc(-c4ccc5c(c4)OCO5)no3)CC2=O)c(C)c1 (stereo not given)
633 s	CCCNC(=O)Cn1nc2cc(-c3ccc(OC)cc3)nc(C)n2c1=O
717 s	CS(=O)(=O)N[C@H]1C[C@@H]2C[C@H]1N(C(=O)Cc1c(F)cccc1Cl)C2
848 s	COc1ccccc1CNC(=O)CN1CCN(Cc2cccc(Cl)c2)C1=O
678 s	O=C(CN1C(=O)c2ccccc2C1=O)Nc1nnc(-c2ccc3c(c2)OCCO3)o1
778 s	Cn1c(=O)c2nc(S(=O)(=O)CCC(=O)Nc3cc(F)ccc3Cl)n(C)c2n(C)c1=O
1080 s	CCOC(=O)c1cc(S(=O)(=O)N2CCCC2C(=O)Nc2ccc(Br)c(C)c2)cn1C (stereo not given)
484 s	CNC(=O)N1CCCN(C)c2ccccc21
649 s	Cc1cc(N2CCN(c3ccccn3)CC2)n2nc(-c3ccc(Cl)cc3)c(C)c2n1
888 s	COc1ccc2c(c1)CC(NC(=O)Nc1ccc(Br)cc1)CO2 (stereo not given)
1140 s	Cc1ccc(C)c(CN2CCCN(CC(=O)NC(C)CCc3ccccc3)S2(=O)=O)c1 (stereo not given)
990 s	CN(C)c1cccc(-c2nc(-c3ccc4c(c3)nnn4CCC(=O)N3CCCC3)no2)c1
1020 s	CCc1nc(-c2csc(S(=O)(=O)N3CCCC(C(=O)NC4CCCCC4)C3)c2)no1 (stereo not given)
617 s	CC(=O)N1CCC(C(=O)Nc2ncc(C)s2)CC1
661 s	CCNc1cc(N2CCCC(CCC(=O)NC(C)c3cccs3)C2)ncn1 (stereo not given)

RP-LC retention time	Compound
593 s	CCCC(C)C(=O)NCCc1nc2cccnc2n1C (stereo not given)
1020 s	Cc1cc(C)c2c(-n3cccc3)nn(CC(=O)NCc3cccc(Br)c3)c2n1
1310 s	CC(C)CCn1nc(-c2nc(-c3cccc(Cl)c3)no2)ccc1=O
709 s	Cc1ccnc(N2CCCC(C(=O)NC3CCCCC3)C2)n1 (stereo not given)
601 s	CNC(=O)c1cc(N2CCN(C)CC2)nc2c(C)cccc12
748 s	CCC(C)C(NC(=O)c1cccc(F)c1)C(=O)Nc1nc2ccccc2[nH]1 (stereo not given)
692 s	Cc1nnsc1C(=O)Nc1nnc(SCC(=O)NCc2ccco2)s1
562 s	O=C(Nc1ccc(Nc2cc(-n3ccnc3)ncn2)cc1)c1c[nH]c2ccccc12
906 s	Cc1ccc(-c2nnc(CC(=O)NCCc3ccc(Cl)cc3)o2)cc1
682 s	COC(=O)c1cnc2nc(C)ccc2c1Nc1ccc(OC)c(Cl)c1
994 s	O=C(CSC1CCCC1)N1CCCC(c2nnc(-c3ccccc3F)s2)C1 (stereo not given)
793 s	CC1=C(c2ccc(C)c(C)c2)S(=O)(=O)N=C1N1CCCN(C(=O)C2CC2)CC1
1100 s	CCc1ccc(-c2noc(Cn3c(=O)n(-c4ccccc4F)c(=O)c4sccc43)n2)cc1
638 s	Cn1nc(C(=O)N2CCCC(c3nnc(C(F)(F)F)o3)C2)ccc1=O (stereo not given)
945 s	CCNC(=O)N1CC(Oc2ccc(-c3nc(-c4ccccc4)no3)cc2)C1
906 s	CCCn1nccc1-c1csc(S(=O)(=O)N2CCC3(CC2)OCCO3)c1
715 s	CNC(=O)C1CN(C(=O)Nc2cc(C)ccc2C)CC12CCCC2 (stereo not given)
887 s	Cc1ccc(N2C=C(C(=O)N3CCOCC3)S(=O)(=O)c3ccc(F)cc32)cc1C
1110 s	COc1ccc(Cl)cc1NC(=O)c1cc2c(=O)oc3ccccc3c2n1C
819 s	O=C(Cn1c2ccccc2c2ncn(Cc3nc(C4CC4)no3)c(=O)c21)NC1CCCC1
754 s	Cc1ccc(NC(=O)N2CCC(N3CCN(Cc4ccc(F)cc4)C(=O)C3=O)CC2)cc1
945 s	Fc1ccc(Br)cc1-c1nc2ccc(Cl)cn2c1Nc1ccc2c(c1)OCO2
664 s	Cc1ccc2nc3sc(C(=O)N4CCN(c5ccccn5)CC4)cc3cc2c1

RP-LC retention time	Compound
741 s	O=C(Nc1ccc2c(c1)OCO2)C1CCN(C(=O)c2ccccc2F)CC1
614 s	CC1CCCN(CCCNC(=O)CCCN2C(=O)CCn3nc(-c4cccn4C)cc32)C1 (stereo not given)
1060 s	COc1cccc(-c2cc3c(=O)n(CC(O)c4ccc(C(C)C)cc4)ccn3n2)c1 (stereo not given)
660 s	COc1ccc(Br)cc1C1C(C(=O)N2CCOCC2)=C(C)NC2=C1C(=O)CCC2 (stereo not given)
762 s	O=C(Nc1ccc2c(c1)OCCO2)NC1CCN(c2ccc(F)cc2)C1=O (stereo not given)
1060 s	CCc1ccccc1NC(=O)c1cn(CC2CCCO2)cc2c(=O)n(-c3ccccc3)nc1-2 (stereo not given)
599 s	CCOC(=O)c1c(NC(=O)CN2CCN(c3ccccn3)CC2)sc(C(N)=O)c1C
849 s	COCCN1C(=O)Cc2ccccc2C1C(=O)N1CCN(c2cccc(Cl)c2)CC1 (stereo not given)
712 s	Cc1nc(N2CCCC(C(=O)NC(C)C)C2)c2c(C)c(C)oc2n1 (stereo not given)
765 s	COc1ccc(-c2coc3cc(OCC(=O)O)ccc3c2=O)cc1
691 s	O=C(CCc1c(-c2ccccc2)nc2ccccn12)NCc1cccc(Br)c1
1220 s	Cc1ccc(-c2noc(Cc3nc(-c4ccc5c(c4)OCO5)cs3)n2)cc1
681 s	CCC1CCCCN1C(=O)c1cnc2nc(C)ccc2c1Nc1ccc(C(=O)OC)cc1 (stereo not given)
769 s	COC(=O)c1cccc(C(=O)N2CCc3ccccc3C2)n1
779 s	CCOc1cc(S(=O)(=O)Nc2cccc(C)n2)c(C)cc1C
737 s	COC(=O)c1ccc(CSc2nnc(NC(=O)c3cc(C)on3)s2)o1
678 s	Cc1ccn2cc(C(=O)NCc3cc(F)cc(F)c3)nc2c1
839 s	Cc1noc(-c2cc(=O)n(CC(=O)Nc3c(C)cccc3C)c3ccccc23)n1
842 s	O=C(C1CCCO1)N1CCC(CCOc2cccc(F)c2)CC1 (stereo not given)
939 s	Cc1cccc(S(=O)(=O)N2C[C@H](c3nc(-c4ccncc4)no3)[C@@H](C)C2)c1

Compound	RP-LC retention time
COc1ccc2c(c1)C1(CCN(C(=O)COc3cccc(C)c3)C1)C(=O)N2 (stereo not given)	668 s
